What follows are molecules tested against cGMP-inhibited 3',5'-cyclic phosphodiesterase 3B (Homo sapiens, UniProt Q13370) (assay: Inhibition of PDE3B).
cGMP-inhibited 3',5'-cyclic phosphodiesterase 3B, sequence (Q13370 whole entry): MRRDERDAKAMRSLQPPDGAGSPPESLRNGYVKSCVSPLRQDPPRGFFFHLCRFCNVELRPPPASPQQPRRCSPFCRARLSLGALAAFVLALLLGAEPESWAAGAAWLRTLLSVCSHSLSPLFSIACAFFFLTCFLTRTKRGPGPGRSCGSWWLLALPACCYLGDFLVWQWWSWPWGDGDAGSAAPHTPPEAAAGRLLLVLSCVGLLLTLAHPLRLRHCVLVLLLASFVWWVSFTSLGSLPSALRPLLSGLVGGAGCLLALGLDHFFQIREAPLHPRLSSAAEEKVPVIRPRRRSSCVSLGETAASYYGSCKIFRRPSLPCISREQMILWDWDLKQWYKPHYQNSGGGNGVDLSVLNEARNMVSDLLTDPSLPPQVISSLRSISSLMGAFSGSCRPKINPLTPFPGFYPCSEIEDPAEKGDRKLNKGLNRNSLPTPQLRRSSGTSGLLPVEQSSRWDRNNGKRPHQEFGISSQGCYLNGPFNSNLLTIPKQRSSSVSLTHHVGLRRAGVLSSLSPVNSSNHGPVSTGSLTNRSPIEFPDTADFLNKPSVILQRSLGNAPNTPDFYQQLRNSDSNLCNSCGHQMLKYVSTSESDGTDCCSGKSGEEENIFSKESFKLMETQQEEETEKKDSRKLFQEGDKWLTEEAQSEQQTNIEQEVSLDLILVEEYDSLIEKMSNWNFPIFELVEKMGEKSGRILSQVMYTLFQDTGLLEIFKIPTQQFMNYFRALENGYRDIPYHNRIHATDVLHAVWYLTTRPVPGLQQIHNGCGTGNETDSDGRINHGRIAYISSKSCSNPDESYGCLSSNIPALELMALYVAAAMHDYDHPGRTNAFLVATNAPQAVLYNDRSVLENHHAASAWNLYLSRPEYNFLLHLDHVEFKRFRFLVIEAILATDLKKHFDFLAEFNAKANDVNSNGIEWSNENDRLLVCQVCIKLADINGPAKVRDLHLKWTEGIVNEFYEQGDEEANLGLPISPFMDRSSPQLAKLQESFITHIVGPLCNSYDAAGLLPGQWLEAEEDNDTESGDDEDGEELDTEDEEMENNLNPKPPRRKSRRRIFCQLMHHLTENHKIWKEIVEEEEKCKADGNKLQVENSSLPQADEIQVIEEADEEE
With `COc1cc2ncnc(N3CC[C@@H](Oc4cccc(C(C)C)c4)C3)c2cc1OC` the Ki was 474 nM. `COc1cc2ncnc(N3CC[C@@H](Oc4ccc(OC(F)(F)F)cc4)C3)c2cc1OC` showed a Ki of 1820 nM.

These molecules were tested against cGMP-inhibited 3',5'-cyclic phosphodiesterase 3A (Homo sapiens, UniProt Q14432) (assay: Inhibition of PDE3A).
cGMP-inhibited 3',5'-cyclic phosphodiesterase 3A, sequence (Q14432 whole entry): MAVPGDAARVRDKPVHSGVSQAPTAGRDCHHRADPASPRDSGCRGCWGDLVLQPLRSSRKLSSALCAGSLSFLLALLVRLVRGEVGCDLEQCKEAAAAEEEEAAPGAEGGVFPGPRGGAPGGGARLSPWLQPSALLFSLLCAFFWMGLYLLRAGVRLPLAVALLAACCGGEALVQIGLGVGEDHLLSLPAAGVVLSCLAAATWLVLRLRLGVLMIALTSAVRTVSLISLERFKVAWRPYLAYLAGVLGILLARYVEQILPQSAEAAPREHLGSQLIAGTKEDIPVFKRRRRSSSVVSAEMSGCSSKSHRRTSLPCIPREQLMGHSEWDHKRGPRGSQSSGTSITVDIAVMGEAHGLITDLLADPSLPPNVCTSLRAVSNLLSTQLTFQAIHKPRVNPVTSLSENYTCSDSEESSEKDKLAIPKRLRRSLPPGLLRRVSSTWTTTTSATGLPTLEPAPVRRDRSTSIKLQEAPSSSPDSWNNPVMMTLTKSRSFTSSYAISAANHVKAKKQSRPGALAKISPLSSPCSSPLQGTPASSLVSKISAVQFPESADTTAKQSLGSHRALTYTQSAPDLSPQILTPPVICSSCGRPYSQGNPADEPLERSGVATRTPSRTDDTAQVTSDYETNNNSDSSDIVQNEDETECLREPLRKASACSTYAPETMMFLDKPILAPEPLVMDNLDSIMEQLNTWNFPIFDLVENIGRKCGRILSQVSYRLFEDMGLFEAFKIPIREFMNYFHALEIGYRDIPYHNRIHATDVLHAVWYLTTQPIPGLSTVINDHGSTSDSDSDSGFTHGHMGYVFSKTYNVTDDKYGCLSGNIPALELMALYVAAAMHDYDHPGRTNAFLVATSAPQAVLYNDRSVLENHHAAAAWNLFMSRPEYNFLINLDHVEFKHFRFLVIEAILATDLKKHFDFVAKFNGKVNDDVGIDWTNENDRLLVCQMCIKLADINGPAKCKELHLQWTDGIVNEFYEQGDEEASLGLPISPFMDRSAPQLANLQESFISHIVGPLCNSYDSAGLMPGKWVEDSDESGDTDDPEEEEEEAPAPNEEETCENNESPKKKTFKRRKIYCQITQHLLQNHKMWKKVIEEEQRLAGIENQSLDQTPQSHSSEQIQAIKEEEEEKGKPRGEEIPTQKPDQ
`COc1cc2ncnc(N3CC[C@@H](Oc4cccc(C(C)C)c4)C3)c2cc1OC` gave a Ki of 370 nM. `COc1cc2ncnc(N3CC[C@@H](Oc4ccc(OC(F)(F)F)cc4)C3)c2cc1OC` showed a Ki of 739 nM.

The molecules below were run against cAMP and cAMP-inhibited cGMP 3',5'-cyclic phosphodiesterase 10A (Homo sapiens, UniProt Q9Y233) (assay: Inhibition of PDE10A).
cAMP and cAMP-inhibited cGMP 3',5'-cyclic phosphodiesterase 10A, sequence (Q9Y233 whole entry): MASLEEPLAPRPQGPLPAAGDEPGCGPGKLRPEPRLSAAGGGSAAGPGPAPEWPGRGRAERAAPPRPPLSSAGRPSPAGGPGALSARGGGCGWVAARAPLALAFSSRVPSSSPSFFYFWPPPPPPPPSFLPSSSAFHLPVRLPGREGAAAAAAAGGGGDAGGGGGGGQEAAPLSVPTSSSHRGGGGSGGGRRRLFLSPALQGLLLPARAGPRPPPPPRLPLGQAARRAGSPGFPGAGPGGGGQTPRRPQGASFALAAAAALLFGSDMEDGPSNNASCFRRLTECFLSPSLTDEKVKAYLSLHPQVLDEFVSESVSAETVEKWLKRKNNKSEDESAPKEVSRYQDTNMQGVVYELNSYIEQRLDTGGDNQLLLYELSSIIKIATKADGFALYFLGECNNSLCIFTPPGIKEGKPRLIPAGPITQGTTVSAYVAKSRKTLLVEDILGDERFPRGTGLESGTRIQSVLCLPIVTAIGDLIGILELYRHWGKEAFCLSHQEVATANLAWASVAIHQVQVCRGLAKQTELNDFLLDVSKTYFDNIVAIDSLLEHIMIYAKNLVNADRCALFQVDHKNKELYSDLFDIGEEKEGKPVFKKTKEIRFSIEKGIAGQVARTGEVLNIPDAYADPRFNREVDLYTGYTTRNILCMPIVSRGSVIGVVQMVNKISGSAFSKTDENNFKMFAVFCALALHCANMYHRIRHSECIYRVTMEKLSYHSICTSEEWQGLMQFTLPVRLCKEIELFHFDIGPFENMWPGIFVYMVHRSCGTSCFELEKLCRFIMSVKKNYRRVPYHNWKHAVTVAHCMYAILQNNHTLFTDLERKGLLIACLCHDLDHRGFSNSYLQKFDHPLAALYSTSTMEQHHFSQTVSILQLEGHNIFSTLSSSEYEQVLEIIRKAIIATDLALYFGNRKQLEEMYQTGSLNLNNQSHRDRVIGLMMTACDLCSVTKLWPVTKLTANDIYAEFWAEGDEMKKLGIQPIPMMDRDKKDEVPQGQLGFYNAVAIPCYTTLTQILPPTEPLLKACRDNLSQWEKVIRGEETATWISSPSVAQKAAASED
In the case of `COc1cc2ncnc(N3CC[C@@H](Oc4cccc(-c5ccccc5)c4)C3)c2cc1OC`, the Ki is reported as 136 nM. For `COc1ccc2ccc(O[C@@H]3CCN(c4ncnc5cc(OC)c(OC)cc45)C3)cc2c1`, the Ki was 17 nM. `CCOc1cccc(O[C@@H]2CCN(c3ncnc4cc(OC)c(OC)cc34)C2)c1` gave a Ki of 94 nM. `COc1cc2ncnc(N3CC[C@@H](Oc4cc5ccccc5cn4)C3)c2cc1OC` gave a Ki of 19 nM. For `COc1cc2ncnc(N3CC[C@@H](Oc4ccncc4)C3)c2cc1OC`, the Ki was 112 nM. Molecule `COc1cc2ncnc(N3CC[C@@H](Oc4ccccn4)C3)c2cc1OC` has a Ki of 123 nM. `COc1ccc2cc(O[C@@H]3CCN(c4ncnc5cc(OC)c(OC)cc45)C3)ccc2c1` showed a Ki of 18 nM. `COc1cc2ncnc(N3CC[C@@H](Oc4ccccc4C)C3)c2cc1OC` showed a Ki of 326 nM. Molecule `COc1cc2ncnc(N3CC[C@@H](Oc4ccc5ncccc5c4)C3)c2cc1OC` has a Ki of 12 nM. `COc1cc2ncnc(N3CC[C@@H](Oc4cccc5ccccc45)C3)c2cc1OC` showed a Ki of 210 nM. `COc1cc2ncnc(N3CC[C@@H](Oc4cccnc4)C3)c2cc1OC` showed a Ki of 128 nM. Work on `CCOc1ccc(O[C@@H]2CCN(c3ncnc4cc(OC)c(OC)cc34)C2)cc1` yielded a Ki of 54 nM. Molecule `COc1cc2ncnc(N3CC[C@@H](Oc4ncc(Cl)cn4)C3)c2cc1OC` has a Ki of 44 nM. `COc1cc2ncnc(N3CC[C@@H](Oc4ccc(C(C)(C)C)cc4)C3)c2cc1OC` gave a Ki of 100 nM. With `COc1cc2ncnc(N3CC[C@@H](Oc4ccc5c(c4)CCC5)C3)c2cc1OC` the Ki was 68 nM. With `COc1cc2ncnc(N3CC[C@@H](Oc4ccccc4Cl)C3)c2cc1OC` the Ki was 198 nM. `COc1cc2ncnc(N3CC[C@@H](Oc4ccccc4C#N)C3)c2cc1OC` was tested, and the Ki was 130 nM. `COc1cc2ncnc(N3CC[C@@H](Oc4ccc5cccnc5c4)C3)c2cc1OC` was tested, and the Ki was 12 nM. Work on `COc1cc2ncnc(N3CC[C@@H](Oc4ccc5nc(C)ccc5c4)C3)c2cc1OC` yielded a Ki of 18 nM. Molecule `COc1ccc(O[C@@H]2CCN(c3ncnc4cc(OC)c(OC)cc34)C2)cc1OC` has a Ki of 67 nM. Work on `COc1cc2ncnc(N3CC[C@@H](Oc4ccccc4OC)C3)c2cc1OC` yielded a Ki of 240 nM. Molecule `COc1cc2ncnc(N3CC[C@@H](Oc4ccccc4C(F)(F)F)C3)c2cc1OC` has a Ki of 811 nM. `COc1cc2ncnc(N3CC[C@@H](Oc4cccc(C(C)C)c4)C3)c2cc1OC` showed a Ki of 171 nM. In the case of `COc1cc2ncnc(N3CC[C@@H](Oc4ccc(OC(F)(F)F)cc4)C3)c2cc1OC`, the Ki is reported as 185 nM.
